Reference: patent publication US20100086519A1, “Treatment of Hepatitis C Infection With Metalloporphyrins” (The Charlotte-Mecklenburg Hospital Authority d/b/a …, priority 2008, published 2010)
Like-named read-outs stand apart in the source and are kept apart here.

Legend:
HCV core, NS5A = assay: HCV protein levels by Western blot in Con1 cells, 24 hours; format: cell-based, hepatitis C virus; conditions: different concentrations, FIG. 7B
Excerpt: (§1) Bartenschlager (University of Heidelberg, Heidelberg, Germany).
(§2) Biochim Biophys Acta 2008; 1779:195-203.
Total RNA and proteins were extracted.

HCV core protein [1] = conditions: CNS3 cells, 0, 1, 5, 10 μM, 4 hours, FIG. 1C
Procedure: 9-13 cells, containing a replicating HCV nonstructural region, stably express HCV NS3 to NS5B. CNS3 cells stably express HCV core to NS3 (amino acid residues 1 through 1233 of the Con1 isolate; Gene Bank accession number AJ238799). Huh-7/T7 cells constitutively express the bacteriophage T7 RNA polymerase. The cells were maintained in DMEM supplemented with 10% (v/v) FBS and 500 μg/mL G418 for 9-13 cells, 10 μg/mL zeocin for CNS3 cells or 5 μg/mL zeocin for Huh-7/T7 cells. […] The Con1 cell line is a Huh-7.5 cell population containing the full-length HCV genotype 1b replicon with the highly adaptive serine to isoleucine substitution at amino acid 2204 of the polypeptide. […]
In brief, total proteins (30-50 μg) were separated on 4-15% gradient SDS-PAGE gels. […] Data are expressed as percentages of the controls (corresponding to the value obtained with the vehicle-treated cells), which were assigned values of one.
(§3) NS5A protein levels in 9-13 and Con1 cells, core protein levels in CNS3 cells, and NS5A and core protein levels in Huh-7/T7 cells transfected with pFK-Con1/GND (a plasmid encoding a replication deficient variant of Con1) exposed to different concentrations of ZnMP (0, 1, 5, 10 μM) for 4 hours were evaluated. […]

HCV NS5A protein [2] = biological target: T1, HCV NS5A protein (Hepatitis C virus genotype 1b, UniProt Q9WMX2); assay: polyubiquitination of NS5A by immunoprecipitation and immunoblot in 9-13 cells; format: cell-based; set-up: processed into structural (C, E1, E2) and nonstructural (NS2, NS3, NS4A, NS4B, NS5A and NS5B) proteins; expressed in transfected cells; host or cells: 9-13 cells (human hepatoma cells with a replicating HCV NS3-NS5B region)
T1 sequence (Q9WMX2 1973-2419): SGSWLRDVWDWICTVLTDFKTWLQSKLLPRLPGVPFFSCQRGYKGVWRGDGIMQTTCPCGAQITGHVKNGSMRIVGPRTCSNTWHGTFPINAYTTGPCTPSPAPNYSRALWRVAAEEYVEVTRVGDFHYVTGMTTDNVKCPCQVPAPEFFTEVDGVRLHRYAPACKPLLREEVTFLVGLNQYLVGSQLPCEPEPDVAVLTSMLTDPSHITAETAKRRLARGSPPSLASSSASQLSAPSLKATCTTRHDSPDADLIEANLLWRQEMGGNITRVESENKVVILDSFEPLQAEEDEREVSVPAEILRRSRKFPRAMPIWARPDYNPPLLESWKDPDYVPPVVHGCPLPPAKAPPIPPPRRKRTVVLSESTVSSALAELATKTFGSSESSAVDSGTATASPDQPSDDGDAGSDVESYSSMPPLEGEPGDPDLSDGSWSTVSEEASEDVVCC
Procedure: Immunoprecipitation was carried out according to the Manufacturer's protocol. Briefly, cells were harvested in cold radioimmunoprecipitation assay (RIPA) buffer (50 mM Tris-HC1 [pH 7.4], 150 mM NaCl, 1 mM EDTA, 0.25% sodium deoxycholate, 1% IGEPAL CA-630, 1 mM PMSF, 1 mM NaF, 1 mM Na3VO4 and 1 μg/ml each of aprotinin, leupeptin, and pepstatin). The samples were pre-cleared with Protein A/G Agarose for 10 min at 4° C. and subsequently incubated while gently rotating at 4° C. overnight with primary antibody, followed by Protein A/G beads for 1 h at 4° C. Beads were spun down and washed twice with RIPA buffer. Protein samples were separated by electrophoresis on 4-15% SDS-PAGE gels, and transferred to PVDF membrane, conjugated ubiquitin was detected as described for Western blot analysis using anti-ubiquitin antibody.
This Example investigates whether ZnMP induces polyubquitination of NS5A to gain insight into the mechanism by which ZnMP mediates degradation of NS5A protein. 9-13 cells were treated without or with 10 μM ZnMP for 4 h. Total proteins were extracted for subsequent Western blot or immunoprecipitation analysis. Immunoprecipitation was carried out using anti-HCV NS5A antibody. Ubiquitin conjugation of NS5A [polyubiquitinated NS5A (Ub)n-NS5A]was examined with immunoprecipitation using an anti-HCV NS5A antibody and immunoblot using an anti-ubiquitin antibody. […] In FIG. 6B, ubiquitination of NS5A following ZnMP treatment, or vehicle (DMSO) only was compared. The positions of molecular mass markers (in kilodaltons) are indicated to the left of the gel. The bracket indicates polyubiquitinated NS5A. Asterisks indicate cross-reacting immunoglobulin heavy chain. […] These bands may represent polyubiquitinated NS5A.

9-13 cells = assay: CellTiter-Glo luminescent cell viability assay; format: cell-based, human
Procedure: The effect of ZnMP on cytotoxicity of treated cells was measured using CellTiter-Glo® Reagent by determining the number of viable cells based on quantitation of the ATP present, which signaled the presence of metabolically active cells. Cells were plated into a 96-well plate with 2500 to 5000 cells/well 24 hours before treatment. Cells were treated with indicated concentrations of ZnMP for 2, 6 and 24 hours in triplicate, an equal volume of CellTiter-Glo® Reagent was added to each well of cell culture medium. The luminescence was read on a Synergy HT microplate reader from Bio-Tek (Winooski, Vt.) with integration time set for 0.25 to 1 second. Decreases in luminescence were taken as an index of cellular cytotoxicity.
In this Example, the cytotoxicity of metalloporphyrins was evaluated. 9-13 cells were seeded into a 96-well plate 24 hours before treatment. Cells were incubated with the indicated concentrations of ZnMP for 0, 2, 6, 24 hours, and CellTiter-Glo® Reagent was added for CellTiter-Glo luminescent cell viability assay on a Synergy HT microplate reader with integration time set for 0.25 to 1 second. Decreases in luminescence were taken as an index of cellular cytotoxicity. * differs from vehicle, P<0.05, Data represent means±SE of triplicate determinations. […] Therefore, ZnMP concentrations not exceeding 20 μM for up to 6 hours or up to 10 μM for up to 24 hours were used.

HCV NS5A protein [3] = biological target: T2, HCV NS5A protein (Hepatitis C virus genotype 2a, UniProt Q99IB8); assay: NS5A protein levels in Huh-7.5 cells transfected with J6/JFH1 RNA; format: cell-based; conditions: J6/JFH1 RNA transfected Huh-7.5 cells, 4 or 24 h, FIGS. 8A-8D
T2 construct: processed into structural (C, E1, E2) and nonstructural (NS2, NS3, NS4A, NS4B, NS5A and NS5B) proteins; expressed in transfected cells; host or cells: Huh-7.5 cells transfected with in vitro transcribed J6/JFH1 RNA
T2 sequence (Q99IB8 1977-2442): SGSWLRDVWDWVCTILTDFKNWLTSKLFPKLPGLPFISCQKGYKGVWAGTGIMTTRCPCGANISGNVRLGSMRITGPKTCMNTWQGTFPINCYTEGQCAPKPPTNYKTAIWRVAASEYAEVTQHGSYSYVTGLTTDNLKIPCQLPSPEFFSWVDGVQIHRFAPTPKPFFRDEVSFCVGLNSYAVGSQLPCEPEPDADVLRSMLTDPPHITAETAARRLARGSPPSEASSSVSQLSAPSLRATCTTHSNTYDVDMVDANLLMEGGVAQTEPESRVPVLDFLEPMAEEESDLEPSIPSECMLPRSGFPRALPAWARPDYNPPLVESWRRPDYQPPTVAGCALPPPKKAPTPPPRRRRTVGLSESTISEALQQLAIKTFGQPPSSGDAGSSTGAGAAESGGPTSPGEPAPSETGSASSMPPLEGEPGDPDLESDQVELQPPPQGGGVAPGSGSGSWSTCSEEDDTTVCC
Excerpt: as §2
Rice (the Rockefeller University, New York, N.Y.).

HCV NS5A protein [4] = biological target: T1, HCV NS5A protein; assay: NS5A protein half-life determination with cycloheximide in 9-13 cells; format: cell-based; set-up: processed into structural (C, E1, E2) and nonstructural (NS2, NS3, NS4A, NS4B, NS5A and NS5B) proteins; expressed in transfected cells; host or cells: 9-13 cells (human hepatoma cells with a replicating HCV NS3-NS5B region); conditions: 100 ug/mL CHX, 10 μM ZnMP, 0-4 h, FIGS. 4A, 4B
Procedure: 9-13 cells were incubated with 100 ug/mL cycloheximide (CHX) in the presence or absence of 10 uM ZnMP. Western blots were performed using anti-HCV NS5A and anti-GAPDH antibodies. Band intensities of Western blots were measured by densitometric analysis. GAPDH bands were used as internal controls to correct for protein loadings.
9-13 cells were treated with 100 ug/mL cycloheximide (CHX) and with or without 10 μM ZnMP for the indicated periods (0, 0.5, 1, 2, 4 h), and then cells were harvested and total proteins were isolated. Proteins were separated on 4-15% SDS-polyacrylamide gel, transferred to a PVDF membrane, anti-HCV NS5A or GAPDH specific antibodies were used to detect NS5A or GAPDH protein levels by Western blot. […] The band intensity of NS5A from untreated sample (0 h) was set at 1.

HCV core protein [5] = conditions: Huh-7/T7 cells, pFK-Con1/GDD, FIG. 7D; much less than in Con1 replicon system
Procedure: (§4) In brief, total proteins (30-50 μg) were separated on 4-15% gradient SDS-PAGE gels. After electrophoretic transfer onto ImmunBlot PVDF membrane, membranes were blocked for 1 hour in PBS containing 5% nonfat dry milk and 0.1% Tween-20, and then incubated overnight with primary antibody at 4° C. The dilutions of the primary antibodies were as follows: 1:2000 for anti-HCV NS5A and anti-GAPDH antibodies, and 1:5000 for anti-HCV core antibody. The membranes were then incubated for 1 hour with horseradish peroxidase-conjugated secondary antibodies (dilution 1:10,000). Finally, the bound antibodies were visualized with the ECL-Plus chemiluminescence system according to the manufacturer's protocol. A Kodak 1DV3.6 computer-based imaging system (Rochester, N.Y.) was used to measure the relative optical density of each specific band obtained after Western blotting. Data are expressed as percentages of the controls (corresponding to the value obtained with the vehicle-treated cells), which were assigned values of one. […]
To evaluate whether ZnMP-mediated degradation of NS5A may play a role in inhibiting HCV replication, Con1 full-length HCV replicon Huh-7.5 cells were treated with different concentrations of ZnMP for 24 hours. […] HCV virus RNA was quantified by qRT-PCR, and the levels of HCV core, NS5A and GAPDH protein were measured by Western blots. […]

HCV = assay: anti-viral activity (summary statement); format: cell-based, hepatitis C virus
HCV NS5A protein [6] = biological target: T3, HCV NS5A protein (Hepatitis C virus genotype 1b, UniProt Q9WMX2, S2204I); assay: NS5A protein levels by Western blot in Con1 cells; format: cell-based; conditions: ZnMP 0, 1, 5, 10 μM, 4 hours, FIG. 1B
T3 construct: processed into structural (C, E1, E2) and nonstructural (NS2, NS3, NS4A, NS4B, NS5A and NS5B) proteins; expressed in transfected cells; host or cells: Con1 cells (Huh-7.5 with the full-length genotype 1b replicon)
T3 sequence (Q9WMX2 1973-2419 S2204I): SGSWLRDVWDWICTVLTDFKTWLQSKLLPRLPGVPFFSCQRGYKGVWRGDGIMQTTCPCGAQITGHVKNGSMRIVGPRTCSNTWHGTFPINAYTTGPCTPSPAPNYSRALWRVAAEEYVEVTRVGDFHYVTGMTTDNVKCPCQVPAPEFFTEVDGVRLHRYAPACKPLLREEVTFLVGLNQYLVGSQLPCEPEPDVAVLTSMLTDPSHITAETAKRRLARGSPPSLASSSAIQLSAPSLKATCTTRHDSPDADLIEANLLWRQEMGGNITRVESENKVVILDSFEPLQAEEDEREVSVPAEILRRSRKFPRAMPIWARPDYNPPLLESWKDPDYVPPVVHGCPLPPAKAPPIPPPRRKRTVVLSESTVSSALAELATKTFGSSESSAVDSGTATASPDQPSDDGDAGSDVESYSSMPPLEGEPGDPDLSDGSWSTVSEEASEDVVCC
Excerpt: as §1, §2

HCV core protein [7] = system: HCV core protein
Procedure: as §4, §3

CCC1=C(C)c2cc3[nH]c(cc4nc(cc5[n-]c(cc1n2)c(C)c5CCC(=O)[O-])C(CCC(=O)[O-])=C4C)c(C)c3CC.[H+].[Zn+2] [ZnMP, Zinc mesoporphyrin]
HCV protein levels (HCV core, NS5A): dose-dependent reduction
HCV core protein levels (HCV core protein [1]): no detectable effects
polyubquitination of NS5A (summary statement) (HCV NS5A protein [2]): induce polyubquitination
polyubquitination of NS5A (HCV NS5A protein [2]; 9-13 cells, 10 μM, 4 h, FIG. 6B): induce polyubquitination
cell viability (9-13 cells; 20 μM, 2-6 hours): no significant effect
cytotoxicity (9-13 cells; 20 μM, 24 hours, p<0.05): significant cytotoxicity
cell viability (9-13 cells; 1-10 μM, 2-24 hours): no significant effect
NS5A protein levels (HCV NS5A protein [3]): rapid and profound decrease
NS5A protein levels in presence of cycloheximide (HCV NS5A protein [4]): greatly and rapidly reduced
HCV core protein levels (HCV core protein [5]): reduction of core
anti-viral activity (summary statement) (HCV): display anti-viral activity
NS5A protein levels (HCV NS5A protein [6]): marked decrease
HCV core protein levels (HCV core protein [7]; Huh-7/T7 cells transfected with pFK-Con1/GND, 0, 1, 5, 10 μM, 4 hours, FIG. 1D): no detectable effects
HCV core protein levels (HCV core protein [7]; Huh-7/T7 cells, pFK-Con1/GND, 24 h, FIG. 7C): remained unaffected
